Our source for the melting point values is the Bradley open melting point set (2014).

Where “and” joins values, the source holds several entries; their conditions need not be identical. Equal entries are not always repeated.

Broadly, the melting point is the temperature of the solid-liquid transition. `CCCSc1ncccc1C(N)=O` [2-(n-propylthio)nicotinamide] yielded a melting point of 147 °C.

On to `N=C(N)Nc1nc(CSCCC(=N)NS(N)(=O)=O)cs1` [famotidine], for which the melting point was 164 °C.

Turning to `CP(C)CCP(C)C` [1,2-bis(dimethylphosphino)ethane], the melting point came out at 180 °C.

`OB(O)c1ccc(F)c(Cl)c1` [3-chloro-4-fluorobenzeneboronic acid] showed a melting point of 258 °C.

As for `CC(CCC(=O)O)(c1ccc(O)cc1)c1ccc(O)cc1` [4,4-bis(4-hydroxyphenyl)valeric acid], the melting point is 173 °C.

Consider `CCCCCCCO` [1-heptanol], for which the melting point is -34 °C (2×) and -33.2 °C.

Turning to `COc1ccc2cc([N+](=O)[O-])ccc2c1C(=O)O` [2-methoxy-6-nitronaphthalene-1-carboxylic acid], the melting point was found to be 187 °C.

On to `CC(=O)c1ccc(B(O)O)s1` [5-acetylthiophene-2-boronic acid], for which the melting point came out at 145 °C.

Take `ClC(Cl)(Cl)Cl` [carbon tetrachloride]: the melting point is -23 °C (4×) and -22.9 °C.

`CCCCCCCC(=O)O` [Caprylic acid] registered a melting point of 16.3 °C.

Molecule `C[C@@H]1O[C@H](O)[C@@H](O)[C@H](O)[C@H]1O` [Rhamnose] registered a melting point of 122 °C.

`CCC(C)CCCC(=O)N[C@@H](CCN)C(=O)N[C@H](C(=O)N[C@@H](CCN)C(=O)N[C@H]1CCNC(=O)[C@H]([C@@H](C)O)NC(=O)[C@H](CCN)NC(=O)[C@H](CCN)NC(=O)[C@H](CC(C)C)NC(=O)[C@@H](CC(C)C)NC(=O)[C@H](CCN)NC1=O)[C@@H](C)O` (some centres not stated) [Colistin] gave a melting point of 210 °C.

In the case of `O=[N+]([O-])c1ccc(I)cc1` [1-Iodo-4-nitrobenzene], the melting point came to 176 °C.

On to `NC1CCCC1` [cyclopentylamine], for which the melting point is -85 °C.

In turn, `C(#Cc1ccccc1)c1ccccc1` [diphenylacetylene] gave a melting point of 63 °C.

For `COC(=O)C1(C)C(C(C)=O)=Nc2ccccc21` (configuration not stated) [methyl 2-acetyl-3-methyl-3H-indole-3-carboxylate], the melting point is 103 °C.

In turn, `COc1ccc(C=O)cc1B(O)O` [5-formyl-2-methoxybenzeneboronic acid] displayed a melting point of 160 °C.

As for `CC(C)C#N` [isobutyronitrile], the melting point is -72 °C.

For the molecule `Cc1c([N+](=O)[O-])cc[n+]([O-])c1C` [2,3-dimethyl-4-nitropyridine n-oxide], the melting point was 93 °C.

Molecule `CSc1ccccc1C(=O)O` [2-(methylthio)benzoic acid] yielded a melting point of 167 °C.

`C/C=C/C(=O)N(CCCCCCC)C(C(=O)NC(C)(C)C)c1cc2ccccc2c2ccccc12` (configuration not stated) [Ugi product 148B]: the melting point is 180 °C.

In turn, `NC(=O)c1cccc(N)c1` [m-aminobenzamide] came in with a melting point of 115 °C.

Turning to `OCC(O)C(O)CO` (stereo not drawn) [meso-erythritol], the melting point came to 122 °C.

`CC(=O)c1cccc(C#N)c1` [3-acetylbenzonitrile] returned a melting point of 99 °C.

`ClC/C=C\CCl` [cis-1,4-dichloro-2-butene] came in with a melting point of -48 °C.

`Cc1ccc(Br)cc1` [4-bromotoluene] displayed a melting point of 28 °C.

For the molecule `Cc1nc2ccccc2o1` [2-methylbenzoxazole], the melting point was 3 °C.

For `O=[N+]([O-])c1ccccc1Br` [o-bromonitrobenzene], the melting point came to 43 °C.

`C#CCO` [propargyl alcohol]: the melting point was -53 °C.

Molecule `COc1c(B(O)O)cccc1C(=O)O` [3-(Dihydroxyboryl)-2-methoxybenzoic acid] registered a melting point of 157 °C.

As to `O=C(O)c1cc(=O)[nH]c(=O)[nH]1` [Cholergol], the melting point was 345 °C.

For the molecule `[2H]c1c([2H])c([2H])c2c([2H])c([2H])c([2H])c([2H])c2c1[2H]` [(~2~H_8_)Naphthalene], the melting point is 82 °C.

With `C[C@]12CC[C@H]3[C@@H](CCC4=CC(=O)CC[C@@]43C)[C@@H]1CC[C@@H]2O` [(17beta)-17-Hydroxyandrost-4-en-3-one], the melting point was 155 °C.

Molecule `C=C(C)C(=C)C` [2,3-dimethyl-1,3-butadiene] had a melting point of -76 °C.

In turn, `O=[N+]([O-])c1cccc(F)c1` [1-fluoro-3-nitrobenzene] gave a melting point of 2 °C.

The molecule `NNC(=O)c1ccc([N+](=O)[O-])o1` [5-nitro-2-furohydrazide] came in with a melting point of 171 °C.

Turning to `Nc1ccc(S(=O)(=O)Nc2ncccn2)cc1` [Sulfadiazine], the melting point was 259 °C.

Molecule `CC(C)C=O` [isobutyraldehyde] had a melting point of -65 °C.

`COC(=O)c1cc2ccccc2c(OC(=O)c2ccccc2C)c1C(=O)OC`: the melting point came to 139 °C.

Turning to `O=C(c1ccccc1)c1cc(Br)ccc1O` [5-bromo-2-hydroxybenzophenone], the melting point worked out at 110 °C.

On to `COC(=O)n1nc(C)cc1C` [methyl 3,5-dimethyl-1H-pyrazole-1-carboxylate], for which the melting point is 52 °C.

`C[C@@H]1C[C@@H]([C@H](O)CC2CC(=O)NC(=O)C2)C(=O)[C@@H](C)C1` registered a melting point of 120 °C.

The molecule `c1ccc([SiH](c2ccccc2)c2ccccc2)cc1` [triphenylsilane] had a melting point of 43 °C.

Take `COC(=O)c1cc(OC)c(OC)c(OC)c1` [methyl_3,4,5-trimethoxybenzoate]: the melting point came out at 84 °C.

The molecule `[O-][n+]1ccc2ccc(Br)cc2c1` [7-bromoisoquinoline n-oxide] registered a melting point of 180 °C.

In turn, `CCOC(=O)C(C#N)=Cc1ccc(Cl)cc1` [Ethyl 3-(4-chlorophenyl)-2-cyanoacrylate] returned a melting point of 138 °C.

In turn, `COc1cccc(OC)c1C(C)=O` [2',6'-dimethoxyacetophenone] displayed a melting point of 70 °C.

With `N#C/C(=C\c1ccc(Cl)cc1)c1nc(-c2cccc3ccccc23)cs1`, the melting point came to 131 °C.

Consider `C#C[C@]5(O)CC[C@H]4[C@H]3[C@@H]([C@@]2(/C(=C\c1oncc1C2)CC3)C)CC[C@@]45C` [danazol], for which the melting point turned out to be 225 °C.

In turn, `Nc1nc2ccc([N+](=O)[O-])cc2s1` [2-Amino-6-nitrobenzothiazole] had a melting point of 248 °C.

For `Clc1cccc2ccccc12` [1-Chloronaphthalene], the melting point was -21.5 °C.

`COC(=O)CC#N` [methyl cyanoacetate] yielded a melting point of -23 °C.

`CCCCNCCCC` [di-n-butylamine] returned a melting point of -62 °C.

The molecule `CCCCCCCCCCCC(C)O` (configuration not stated) [2-tridecanol] gave a melting point of 25 °C.

The molecule `CC(C)CC=CB(O)O` [4-methyl-1-pentenylboronic acid] came in with a melting point of 101 °C.

The molecule `OC[C@@H](O)[C@@H](O)[C@@H](O)CO` [adonitol] came in with a melting point of 103 °C.

Regarding `CCOC(=O)CC(C)=O` [Ethyl 3-oxobutanoate], the melting point was -43 °C.

For the molecule `NCC(O)c1ccccc1` (configuration not stated) [2-Amino-1-phenylethanol], the melting point turned out to be 57 °C.

Turning to `Cc1ccc(C)n1-c1ccc(C(F)(F)F)cc1` [OSM-S-27], the melting point worked out at 71.5 °C.

For `C[C@]12CCC(=O)C=C1CC[C@@H]1[C@@H]2[C@@H](O)C[C@]2(C=O)[C@@H](C(=O)CO)CC[C@@H]12` [Aldosterone], the melting point came to 166 °C.

As to `O=C(O)c1cc(F)ccc1O` [5-fluorosalicylic acid], the melting point stood at 180 °C.

As to `CCC1(c2ccccc2)C(=O)NC(=O)N(C)C1=O` (configuration not stated) [Methylphenobarbital], the melting point came out at 176 °C.

On to `CC(C)(C)c1ccc(N)cc1` [4-tert-butylaniline], for which the melting point came out at 16 °C.

As for `Clc1cc(Cl)c(I)cc1Cl` [1,2,4-trichloro-5-iodobenzene], the melting point came out at 104 °C.

On to `Nc1nc(N)c2nc(-c3ccccc3)c(N)nc2n1` [triamterene], for which the melting point was 316 °C.

Turning to `CCC(C)(C)Cl` [2-Chloro-2-methylbutane], the melting point was -73 °C.

`CC1=C(CC(=O)O)c2cc(F)ccc2/C1=C\c1ccc(S(C)=O)cc1` (configuration not stated) [sulindac] gave a melting point of 184 °C.

As to `CC(=O)Nc1ccc2c(c1)NC(=O)C2` [N-(2-oxo-2,3-dihydro-1H-indol-6-yl)acetamide], the melting point came to 335 °C.

Consider `O=Cc1ccc(C(=O)O)cc1` [p-formyl_benzoic_acid], for which the melting point stood at 247 °C.

With `CC(=O)c1cccc(C(C)=O)c1` [1,3-diacetylbenzene], the melting point was found to be 36 °C.

`CC(C)(C)C(N)=S` [2,2,2-trimethylthioacetamide] displayed a melting point of 115 °C.

Molecule `N#CCCO` [3-hydroxypropionitrile] registered a melting point of -46 °C.

The molecule `OCc1cccc(CO)c1` [1,3-benzenedimethanol] returned a melting point of 58 °C.

Molecule `CNC[C@H](O)c1ccc(O)c(O)c1` [epinephrine] showed a melting point of 212 °C.

`CCC(C(=O)O)c1ccccc1` (configuration not stated) [2-phenylbutyric acid]: the melting point is 38 °C.

In turn, `Cc1ccccc1` [toluene] yielded a melting point of -93 °C.

For `Cc1cc(CO)nn1C` [1H-pyrazole-3-methanol, 1,5-dimethyl-], the melting point came out at 41 °C.

For the molecule `O=C(O)/C=C/c1ccccc1B(O)O` [2-(2-carboxyvinyl)benzeneboronic acid], the melting point was 171 °C.

In turn, `Nc1ccccc1N` [Benzene-1,2-diamine] gave a melting point of 102 °C.

`O=C(O)c1cccc(Br)c1` [m-bromobenzoic_acid] yielded a melting point of 157 °C.

For the molecule `CC(O)CCc1ccc(CCC(C)O)cc1` (configuration not stated) [4,4'-benzene-1,4-diyldibutan-2-ol], the melting point came out at 44 °C.

Molecule `COC(=O)c1ccc(O)cc1` [methyl p-hydroxybenzoate] displayed a melting point of 131 °C.

Consider `COc1cc(Br)cc(OC)c1OC` [5-bromo-1,2,3-trimethoxybenzene], for which the melting point stood at 79 °C.

`c1ccc2cc3cc4ccccc4cc3cc2c1` [Tetracene] yielded a melting point of 350 °C.

As to `COC(=O)c1ccc(CC#N)cc1` [methyl_p-cyanomethyl_benzoate], the melting point was 64 °C.

For the molecule `C[C@H](NC(=O)OC(C)(C)C)C(=O)O` [N-boc-L-alanine], the melting point amounted to 82 °C.

`CSc1ccc(CC(=O)O)cc1` [4-(methylthio)phenylacetic acid] displayed a melting point of 100 °C.
